The text below walks through data of US7115658B2 (priority 2002, dated 2006).

For series [1], the target named is T1, NS5B, the RNA-dependent RNA polymerase (Hepatitis C virus genotype 1b, UniProt P26663).
T1 construct: NS5B, the RNA-dependent RNA polymerase, is also a useful viral target
To be noted: Ishii et al. 1999; cited from earlier work.

The target of series [2] is T2, Recombinant HCV polymerase (Hepatitis C virus genotype 1b, UniProt P26663).
T2 construct: 2.5 pmoles (0.15 μg) HCV polymerase protein
The experiment in a line: HCV Polymerase Inhibition Assay. The class given is biochemical. To be noted: primer/template-directed transcription, 30 minutes at 30° C. Put shortly: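 Recombinant genotype 1b polymerase (2.5 pmol) extended biotin-dG12 on poly(rC)300 with 1 μM GTP plus α-32P-GTP, pH 7.2, 30 min at 30 °C, 1% DMSO final; DE-filter-bound product counted. IC50 fitted from triplicate cpm, refitted with enzyme-concentration (30 nM) tight-binding equation when below 200 nM.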

The test system of the next series is pestivirus. To be noted: Baginski et al. 2000; cited from earlier work.

Read-outs that look alike come from different tables or passages of the source.

T2 sequence (P26663 2420-3010): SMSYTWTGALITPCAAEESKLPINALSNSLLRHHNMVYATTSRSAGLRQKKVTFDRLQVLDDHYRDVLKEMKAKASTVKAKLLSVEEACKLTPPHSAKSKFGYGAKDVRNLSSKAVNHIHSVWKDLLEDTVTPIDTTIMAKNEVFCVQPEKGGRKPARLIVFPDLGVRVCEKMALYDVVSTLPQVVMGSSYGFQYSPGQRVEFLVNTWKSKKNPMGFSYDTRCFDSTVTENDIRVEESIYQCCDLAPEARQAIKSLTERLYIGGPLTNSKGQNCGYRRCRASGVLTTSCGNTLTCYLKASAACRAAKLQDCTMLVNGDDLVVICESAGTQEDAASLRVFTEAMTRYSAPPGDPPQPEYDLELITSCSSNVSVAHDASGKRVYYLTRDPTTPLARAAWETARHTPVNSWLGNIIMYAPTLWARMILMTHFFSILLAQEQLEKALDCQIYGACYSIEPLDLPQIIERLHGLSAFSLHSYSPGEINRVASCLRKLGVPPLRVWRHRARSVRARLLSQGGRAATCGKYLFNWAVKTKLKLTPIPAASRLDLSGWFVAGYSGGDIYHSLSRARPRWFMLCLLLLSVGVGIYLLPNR
T1 sequence (P26663 2420-3010): as above

Regarding `Nc1ccn([C@@H]2CS[C@H](COP(=O)(O)OP(=O)(O)OP(=O)(O)O)O2)c(=O)n1` [3TC; lamivudine triphosphate], the “Inhibition of RdRp activity” value in series [1] is on record as “Inhibition of RdRp activity”.
With `O=C(O)CP(=O)(O)O` [phosphonoacetic acid, reference compound], in series [1], the “Inhibition of RdRp activity” value is reported as “Inhibition of RdRp activity”.
Take `CC(=O)Nc1cc(C(C)(C)C)c(SC2=C(O)CC(CCc3ccc(O)cc3)(C3CCCCC3)OC2=O)cc1C` (stereo not drawn) [Example 142, N-(5-tert-butyl4-{6-cyclohexyl-4-hydroxy-6-[2-(4-hydroxy-phenyl)-ethyl]-2-oxo-5,6-dihydro-2H-pyran-3-ylsulfanyl)-2-methyl-phenyl)-acetamide]: the melting point (commonly the temperature, or range, at which the solid turns liquid) is greater than 154 °C. Besides, the IC50 (as a rule, the point on the concentration scale where inhibition reaches its midpoint) in series [2] (category symbol) was greater than 50 µM.
For the compound `Cc1cc(SC2=C(O)CC(CCc3ccc(O)cc3)(C3CCCC3)OC2=O)c(C(C)(C)C)cc1OS(=O)(=O)N1CCN(C)CC1` (stereo not drawn) [Example 147], the melting point lay within 163 to 165 °C. Further, the IC50 in series [2] (category symbol) fell in the range of 1 to 10 µM.
In the same order, the values of `O=C1OC(CCc2ccc(O)cc2)(C2CCCC2)CC(O)=C1N(c1ccccc1)c1ccccc1` (stereo not drawn) [Example 161, Cyclopentyl-diphenylamino-hydroxy-[2-(4-hydroxy-phenyl)-ethyl]-5,6-dihydro-pyran-2-one] are 93 to 94 °C and 1 to 10 µM.
Take `CCCN(CCC)CCSc1nnc2c(n1)[nH]c1ccccc12` [VP32947, 3-[((2-dipropylamino)ethyl)thio]-5H-1,2,4-triazino[5,6-b]indole]: the “inhibitor of pestivirus replication” value in the series with pestivirus is “potent inhibitor”.
As for `Cc1cc(SC2=C(O)CC(C3CCCC3)(C3CCCC3)OC2=O)c(C(C)(C)C)cc1OS(=O)(=O)c1cn(C)cn1` [Example 182, 1-methyl-1H-imidazole-4-sulfonic acid 5-tert-butyl-4-(6,6-dicyclopentyl-4-hydroxy-2-oxo-5,6-dihydro-2H-pyran-3-ylsulfanyl)-2-methyl-phenyl ester], the melting point lay in the range of 143 to 145 °C. The IC50 in series [2] (category symbol) is 10 to 50 µM.
For the compound `CCCN(C1=C(O)CC(CCc2ccc(O)cc2)(C2CCCC2)OC1=O)c1ccccc1` (stereo not drawn) [Example 159, 6-Cyclopentyl-4-hydroxy-6-[2-(4-hydroxy-phenyl)-ethyl]-3-(phenyl-propyl-amino)-5,6-dihydro-pyran-2-one], the melting point was determined as 95 °C. Moreover, in series [2] (category symbol), the IC50 was 1 to 10 µM.
In the same order, the values of `Cc1cc(SC2=C(O)CC(CCc3ccc(O)cc3)(C3CCCCC3)OC2=O)c(C(C)(C)C)cc1N` (stereo not drawn) [Example 143, 3-(4-Amino-2-tert-butyl-5-methyl-phenylsulfanyl)-6-cyclohexyl-4-hydroxy-6-[2-(4-hydroxy-phenyl)-ethyl]-5,6-dihydro-pyran-2-one] are greater than 133 °C and 1 to 10 µM.
The corresponding values for `Cc1cc(SC2=C(O)CC(CCc3ccc(O)cc3)(C3CCCC3)OC2=O)c(C(C)(C)C)cc1OCCO` (stereo not drawn) [Example 148, 3-[2-tert-butyl-4-(2-hydroxy-ethoxy)-5-methyl-phenylsulfanyl]-6-cyclopentyl-4-hydroxy-6-[2-(4-hydroxy-phenyl)-ethyl]-5,6-dihydro-pyran-2-one] are 113 to 115 °C and 1 to 10 µM.
Compound `CCCN(C1=C(O)CC(C2CCCC2)(C2CCCC2)OC1=O)c1cccc(NS(=O)(=O)c2cccs2)c1` [Example 186, Thiophene-2-sulfonic acid {3-[(6,6-dicyclopentyl-4-hydroxy-2-oxo-5,6-dihydro-2H-pyran-3-yl)-propyl-amino]-phenyl}-amide] yielded a melting point of 92 to 95 °C. The IC50 in series [2] (category symbol) lay within 10 to 50 µM.
In the same order, the values of `CCN(C1=C(O)CC(CCc2ccc(O)cc2)(C2CCCC2)OC1=O)c1ccccc1` (stereo not drawn) [Example 160, Cyclopentyl-(ethyl-phenyl-amino)-hydroxy-[2-(4-hydroxy-phenyl)-ethyl]-5,6-dihydro-pyran-2-one] are 83 to 85 °C and 1 to 10 µM.
The corresponding values for `Cc1cc(SC2=C(O)CC(CCc3ccc(O)cc3)(C3CCCC3)OC2=O)c(C(C)(C)C)cc1NS(=O)(=O)c1ccccc1` (racemic) [Example 141, (+/−)N-(5-tert-butyl-{6-cyclopentyl-4-hydroxy-6-[2-(4-hydroxy-phenyl)-ethyl]-2-oxo-5,6-dihydro-2H-pyran-3-ylsulfanyl}-2-methyl-phenyl)-benzenesulfonamide] are 125 to 127 °C and 1 to 10 µM.
As for `Cc1cc(SC2=C(O)CC(C3CCCC3)(C3CCCC3)OC2=O)c(C(C)(C)C)cc1CO` [Example 180, 3-(2-tert-butyl-4-hydroxymethyl-5-methyl-phenylsulfanyl)-6,6-dicyclopentyl-4-hydroxy-5,6-dihydro-pyran-2-one], the melting point was in the range of 158 to 160 °C. In addition, in series [2] (read-out: IC50(μM) Category), the IC50 stood at 15 µM.
As for `CCCN(C1=C(O)CC(C2CCCC2)(C2CCCC2)OC1=O)c1cccc(NS(=O)(=O)c2ccccn2)c1` [Example 184, Pyridine-2-sulfonic acid {3-[(6,6-dicyclopentyl-4-hydroxy-2-oxo-5,6-dihydro-2H-pyran-3-yl)-propyl-amino]-phenyl}-amide], the melting point is 105 to 107 °C. Moreover, the IC50 in series [2] (category symbol) is 10 to 50 µM.
For the compound `O=C1CC(=O)OC(CCc2ccccc2)(C2CCCC2)C1` (stereo not drawn) [Example 35, 6-Cyclopentyl-6-phenethyl-dihydro-pyran-2,4-dione], the melting point was in the range of 96 to 99 °C. The IC50 in series [2] (category symbol) fell in the range of 10 to 50 µM.
The corresponding values for `CCNS(=O)(=O)Oc1cc(C(C)(C)C)c(SC2=C(O)CC(CCc3cccc(O)c3)(C3CCCC3)OC2=O)cc1C` (stereo not drawn) [Example 149, Ethyl-sulfamic acid 5-tert-butyl-4-{6-cyclopentyl-4-hydroxy-6-[2-(3-hydroxy-phenyl)-ethyl]-2-oxo-5,6-dihydro-2H-pyran-3-ylsulfanyl}-2-methyl-phenyl ester] are 69 to 72 °C and greater than 50 µM.
In the same order, the values of `CCCN(C1=C(O)C[C@@](CCc2cccc(O)c2)(C2CCCC2)OC1=O)c1ccccc1` [Example 155, 6-(S)-Cyclopentyl-4-hydroxy-6-[2-(3-hydroxy-phenyl)-ethyl]-3-(phenyl-propyl-amino)-5,6-dihydro-pyran-2-one] are 74 to 76 °C and 1 to 10 µM.
The compound `Cc1cc(SC2=C(O)CC(C3CCCC3)(C3CCCC3)OC2=O)c(C(C)(C)C)cc1OCCO` [Example 181, 3-[2-tert-butyl-4-(2-hydroxy-ethoxy)-5-methyl-phenylsulfanyl]-6,6-dicyclopentyl-4-hydroxy-5,6-dihydro-pyran-2-one] showed a melting point of 100 to 102 °C. For the same compound, in series [2] (read-out: IC50(μM) Category), the half-maximal inhibitory concentration (IC50) turned out to be 36 µM.
The compound `Cc1cc(SC2=C(O)CC(C3CCCC3)(C3CCCC3)OC2=O)c(C(C)(C)C)cc1N` [Example 179, 3-(4-Amino-2-tert-butyl-5-methyl-phenylsulfanyl)-6,6-dicyclopentyl-4-hydroxy-5,6-dihydro-pyran-2-one] registered a melting point of 163 to 165 °C. The IC50 in series [2] (read-out: IC50(μM) Category) came to 15.5 µM.
For `CCCN(C1=C(O)CC(C2CCCC2)(C2CCCC2)OC1=O)c1cccc(N)c1` [Example 187, 3-[(3-Amino-phenyl)-propyl-amino]-6,6-dicyclopentyl-4-hydroxy-5,6-dihydro-pyran-2-one], the melting point is 173 to 175 °C. Also, the IC50 in series [2] (category symbol) was greater than 50 µM.
